Where two headings read alike, the source gives them in different places.
Tests used:
Assay in all cases: KiNativ assay
Type in all cases: binding
Settings in all cases: H929 live cell
[1] = target: SGK3 (Homo sapiens (Human), UniProt Q96BR1)
Description: (§1) Biochemical IC50s of the compounds of the present disclosure against various kinases were measured in a KiNativ assay. Compounds were screened in duplicate at 10 μM in H929 live cell. IC50 was measured via Mass spectroscopy (MS).

[2] = target: PIP5K3 (Homo sapiens (Human), UniProt Q9Y2I7)
Description: as §1

[3] = target: OSR1 (Homo sapiens (Human), UniProt O95747)
Description: as §1

[4] = target: PLK1 (Homo sapiens (Human), UniProt P53350)
Description: as §1

[5] = target: CK1a (Homo sapiens (Human), UniProt P48729)
Description: as §1

[6] = target: TLK1 (Homo sapiens (Human), UniProt Q9UKI8)
Description: as §1

[7] = target: CaMK2d (Homo sapiens (Human), UniProt Q13557)
Description: as §1

[8] = test system: PITSLRE
Description: as §1

[9] = target: FER (Homo sapiens (Human), UniProt P16591)
Description: as §1

[10] = target: MAP3K4 (Homo sapiens (Human), UniProt Q9Y6R4)
Description: as §1

[11] = target: CLK2 (Homo sapiens (Human), UniProt P49760)
Description: as §1

[12] = target: MAP2K4 (Homo sapiens (Human), UniProt P45985)
Description: as §1

[13] = target: TBK1 (Homo sapiens (Human), UniProt Q9UHD2)
Description: as §1

[14] = target: MAP2K6 (Homo sapiens (Human), UniProt P52564)
Description: as §1

[15] = target: MST3 (Homo sapiens (Human), UniProt Q9Y6E0)
Description: as §1

[16] = target: FRAP (Homo sapiens (Human), UniProt P42345)
Description: as §1

[17] = target: CDC2 (Homo sapiens (Human), UniProt P06493)
Description: as §1

[18] = target: SRPK1 (Homo sapiens (Human), UniProt Q96SB4)
Description: as §1

[19] = test system: JNK1, JNK2, JNK3
Description: as §1

[20] = target: ILK (Homo sapiens (Human), UniProt Q13418)
Description: as §1

[21] = test system: p38d, p38g
Description: as §1

[22] = target: eEF2K (Homo sapiens (Human), UniProt O00418)
Description: as §1

[23] = test system: MST4
Description: as §1

[24] = target: GCK (Homo sapiens (Human), UniProt Q12851)
Description: as §1

[25] = target: MASTL (Homo sapiens (Human), UniProt Q96GX5)
Description: as §1

[26] = target: RSKL1 (Homo sapiens (Human), UniProt Q96S38)
Description: as §1

[27] = target: DGKH (Homo sapiens (Human), UniProt Q86XP1)
Description: as §1

[28] = target: PFTAIRE1 (Homo sapiens (Human), UniProt O94921)
Description: as §1

[29] = target: PI4KB (Homo sapiens (Human), UniProt Q9UBF8)
Description: as §1

[30] = test system: MARK2, MARK3
Description: as §1

[31] = target: AurA (Homo sapiens (Human), UniProt O14965)
Description: as §1

[32] = target: TYK2 domain2 (Homo sapiens (Human), UniProt P29597)
Description: as §1

[33] = target: Erk2 (Homo sapiens (Human), UniProt P28482)
Description: as §1

[34] = range class, read-out: % inhibition

MASTL, sequence (Q96GX5 whole entry): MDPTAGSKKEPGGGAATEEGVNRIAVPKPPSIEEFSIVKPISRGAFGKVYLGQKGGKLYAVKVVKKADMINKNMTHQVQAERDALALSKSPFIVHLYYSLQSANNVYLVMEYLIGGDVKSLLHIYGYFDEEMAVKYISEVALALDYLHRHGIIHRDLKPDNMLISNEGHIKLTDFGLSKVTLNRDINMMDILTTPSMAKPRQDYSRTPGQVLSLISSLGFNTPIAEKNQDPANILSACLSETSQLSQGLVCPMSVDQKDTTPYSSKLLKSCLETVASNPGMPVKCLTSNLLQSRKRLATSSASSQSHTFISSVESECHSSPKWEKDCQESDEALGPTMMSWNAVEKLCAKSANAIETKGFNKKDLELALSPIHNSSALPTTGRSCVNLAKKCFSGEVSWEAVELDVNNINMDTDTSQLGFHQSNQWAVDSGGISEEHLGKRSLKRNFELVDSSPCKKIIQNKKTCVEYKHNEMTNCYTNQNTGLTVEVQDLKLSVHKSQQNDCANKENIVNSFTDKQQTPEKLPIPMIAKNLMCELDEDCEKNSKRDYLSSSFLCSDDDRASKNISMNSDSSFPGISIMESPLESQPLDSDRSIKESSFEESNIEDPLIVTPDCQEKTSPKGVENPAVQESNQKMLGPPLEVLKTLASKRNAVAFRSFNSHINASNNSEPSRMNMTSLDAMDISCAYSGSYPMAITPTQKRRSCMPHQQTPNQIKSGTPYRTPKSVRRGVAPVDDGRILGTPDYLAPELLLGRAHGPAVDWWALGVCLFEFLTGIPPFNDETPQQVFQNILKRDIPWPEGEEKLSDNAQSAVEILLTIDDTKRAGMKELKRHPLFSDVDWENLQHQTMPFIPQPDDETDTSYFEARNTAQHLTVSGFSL
RSKL1, sequence (Q96S38 whole entry): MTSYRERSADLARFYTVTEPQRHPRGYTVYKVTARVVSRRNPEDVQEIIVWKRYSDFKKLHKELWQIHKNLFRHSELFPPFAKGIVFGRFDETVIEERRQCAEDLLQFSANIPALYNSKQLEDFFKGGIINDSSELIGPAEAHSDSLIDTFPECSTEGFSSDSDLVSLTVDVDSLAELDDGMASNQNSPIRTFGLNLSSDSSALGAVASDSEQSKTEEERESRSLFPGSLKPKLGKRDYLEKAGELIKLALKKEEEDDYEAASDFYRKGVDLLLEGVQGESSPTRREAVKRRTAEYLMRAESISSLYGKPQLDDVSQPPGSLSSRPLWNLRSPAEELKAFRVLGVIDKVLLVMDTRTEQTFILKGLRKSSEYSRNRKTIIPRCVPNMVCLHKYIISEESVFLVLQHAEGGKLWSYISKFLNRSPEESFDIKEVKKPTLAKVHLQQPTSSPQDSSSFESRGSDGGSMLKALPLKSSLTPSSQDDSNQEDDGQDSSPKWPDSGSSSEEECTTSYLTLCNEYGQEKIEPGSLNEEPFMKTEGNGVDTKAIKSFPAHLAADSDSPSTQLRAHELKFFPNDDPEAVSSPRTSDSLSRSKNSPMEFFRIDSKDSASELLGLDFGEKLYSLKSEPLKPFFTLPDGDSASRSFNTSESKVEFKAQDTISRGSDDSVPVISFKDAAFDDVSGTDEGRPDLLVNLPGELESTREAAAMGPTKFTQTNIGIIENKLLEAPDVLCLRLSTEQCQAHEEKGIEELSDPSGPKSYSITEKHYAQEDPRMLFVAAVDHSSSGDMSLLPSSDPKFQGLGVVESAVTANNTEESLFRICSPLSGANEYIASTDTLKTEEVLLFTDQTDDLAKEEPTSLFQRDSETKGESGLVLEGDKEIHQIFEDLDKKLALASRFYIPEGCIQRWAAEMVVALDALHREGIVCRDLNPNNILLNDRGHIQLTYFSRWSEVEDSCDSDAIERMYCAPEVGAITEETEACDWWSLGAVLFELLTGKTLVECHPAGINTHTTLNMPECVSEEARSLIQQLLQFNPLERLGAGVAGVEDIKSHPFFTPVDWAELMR
SRPK1, sequence (Q96SB4 whole entry): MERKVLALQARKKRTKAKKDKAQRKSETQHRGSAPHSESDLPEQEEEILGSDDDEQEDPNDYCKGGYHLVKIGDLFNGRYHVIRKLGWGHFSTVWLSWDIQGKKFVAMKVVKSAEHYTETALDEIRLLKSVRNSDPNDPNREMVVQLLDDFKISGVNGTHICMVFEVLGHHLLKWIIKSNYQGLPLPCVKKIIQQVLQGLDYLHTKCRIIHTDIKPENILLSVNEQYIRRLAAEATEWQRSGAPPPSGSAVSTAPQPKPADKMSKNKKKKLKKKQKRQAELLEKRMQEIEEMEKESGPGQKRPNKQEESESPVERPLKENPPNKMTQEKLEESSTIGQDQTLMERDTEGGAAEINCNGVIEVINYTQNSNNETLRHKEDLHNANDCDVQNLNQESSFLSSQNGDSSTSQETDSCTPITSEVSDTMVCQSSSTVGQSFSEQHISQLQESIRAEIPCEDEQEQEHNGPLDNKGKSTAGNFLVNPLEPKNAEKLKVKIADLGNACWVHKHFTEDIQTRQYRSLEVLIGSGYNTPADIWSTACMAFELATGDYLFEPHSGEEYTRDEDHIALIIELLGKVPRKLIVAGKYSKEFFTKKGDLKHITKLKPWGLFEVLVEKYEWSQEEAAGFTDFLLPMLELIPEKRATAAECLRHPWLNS
TYK2 domain2, sequence (P29597 whole entry, the tested form may be a part): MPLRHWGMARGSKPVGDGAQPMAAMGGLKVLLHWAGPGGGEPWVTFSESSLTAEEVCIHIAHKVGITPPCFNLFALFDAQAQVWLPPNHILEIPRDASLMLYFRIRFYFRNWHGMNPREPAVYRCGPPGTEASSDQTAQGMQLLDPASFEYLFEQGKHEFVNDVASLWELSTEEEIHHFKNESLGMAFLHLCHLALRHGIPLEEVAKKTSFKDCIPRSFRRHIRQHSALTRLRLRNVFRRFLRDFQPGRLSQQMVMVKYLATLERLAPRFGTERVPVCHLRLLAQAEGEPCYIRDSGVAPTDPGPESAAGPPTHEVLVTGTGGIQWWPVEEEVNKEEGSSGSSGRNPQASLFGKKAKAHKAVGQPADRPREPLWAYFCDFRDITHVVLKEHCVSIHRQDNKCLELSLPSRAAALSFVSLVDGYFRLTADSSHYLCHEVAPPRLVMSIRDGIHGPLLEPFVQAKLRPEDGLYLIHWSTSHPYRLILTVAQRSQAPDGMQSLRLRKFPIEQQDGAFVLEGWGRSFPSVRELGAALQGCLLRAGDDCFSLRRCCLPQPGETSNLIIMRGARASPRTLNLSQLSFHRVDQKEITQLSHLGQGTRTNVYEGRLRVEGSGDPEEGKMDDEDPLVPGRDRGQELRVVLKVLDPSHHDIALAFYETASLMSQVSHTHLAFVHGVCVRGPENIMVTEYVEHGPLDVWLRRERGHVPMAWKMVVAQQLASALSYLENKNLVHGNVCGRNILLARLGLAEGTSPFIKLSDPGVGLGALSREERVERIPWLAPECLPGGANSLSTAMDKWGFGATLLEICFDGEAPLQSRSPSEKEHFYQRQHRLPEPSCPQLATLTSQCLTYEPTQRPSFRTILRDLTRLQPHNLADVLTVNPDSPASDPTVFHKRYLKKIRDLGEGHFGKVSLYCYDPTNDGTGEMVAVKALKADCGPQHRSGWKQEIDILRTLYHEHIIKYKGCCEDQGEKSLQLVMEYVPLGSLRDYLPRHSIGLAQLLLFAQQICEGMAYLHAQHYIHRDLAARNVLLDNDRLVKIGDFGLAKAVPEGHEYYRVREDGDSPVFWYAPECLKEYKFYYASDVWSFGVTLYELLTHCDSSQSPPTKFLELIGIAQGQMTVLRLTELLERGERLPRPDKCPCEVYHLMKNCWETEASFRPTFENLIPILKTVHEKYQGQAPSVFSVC
PFTAIRE1, sequence (O94921 whole entry): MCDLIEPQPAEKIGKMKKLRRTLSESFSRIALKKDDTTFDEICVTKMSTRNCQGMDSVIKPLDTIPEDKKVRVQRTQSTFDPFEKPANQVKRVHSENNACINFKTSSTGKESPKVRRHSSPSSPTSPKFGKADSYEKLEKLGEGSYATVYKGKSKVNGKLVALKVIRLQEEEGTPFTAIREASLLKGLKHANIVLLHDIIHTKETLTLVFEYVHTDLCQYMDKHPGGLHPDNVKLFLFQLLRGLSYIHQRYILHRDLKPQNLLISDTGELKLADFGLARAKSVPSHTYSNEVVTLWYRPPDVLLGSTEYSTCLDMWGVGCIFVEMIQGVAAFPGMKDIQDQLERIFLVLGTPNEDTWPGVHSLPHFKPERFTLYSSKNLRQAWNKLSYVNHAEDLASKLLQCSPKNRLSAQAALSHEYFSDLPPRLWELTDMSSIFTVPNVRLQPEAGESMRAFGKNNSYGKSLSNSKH
PFTAIRE1, sequence (Q8ND76 whole entry partner): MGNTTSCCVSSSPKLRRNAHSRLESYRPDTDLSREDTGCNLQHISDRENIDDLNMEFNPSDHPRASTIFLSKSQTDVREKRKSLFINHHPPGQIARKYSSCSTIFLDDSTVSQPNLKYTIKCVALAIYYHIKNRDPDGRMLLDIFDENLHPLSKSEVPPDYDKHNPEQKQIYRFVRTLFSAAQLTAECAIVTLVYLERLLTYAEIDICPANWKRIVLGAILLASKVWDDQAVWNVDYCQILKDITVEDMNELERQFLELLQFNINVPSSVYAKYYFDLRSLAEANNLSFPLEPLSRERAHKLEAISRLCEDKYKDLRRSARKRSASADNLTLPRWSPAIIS
MAP2K4, sequence (P45985 whole entry): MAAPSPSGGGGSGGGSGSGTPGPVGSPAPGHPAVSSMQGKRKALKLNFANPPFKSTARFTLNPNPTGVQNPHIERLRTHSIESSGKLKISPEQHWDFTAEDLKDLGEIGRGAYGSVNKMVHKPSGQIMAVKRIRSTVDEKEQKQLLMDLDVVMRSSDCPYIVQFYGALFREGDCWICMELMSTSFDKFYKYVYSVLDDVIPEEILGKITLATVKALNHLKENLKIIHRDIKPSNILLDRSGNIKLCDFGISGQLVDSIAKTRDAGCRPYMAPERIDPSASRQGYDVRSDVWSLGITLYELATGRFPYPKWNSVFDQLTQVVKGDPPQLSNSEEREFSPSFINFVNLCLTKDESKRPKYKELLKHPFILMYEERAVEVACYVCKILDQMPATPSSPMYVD

## Nc1ncc(-c2ccc(NS(=O)(=O)C3CC3)cc2F)cc1-c1ccc2c(c1)CCNC2=O [Compound I-51, N-(4-(6-amino-5-(1-oxo-1,2,3,4-tetrahydroisoquinolin-6-yl)pyridin-3-yl)-3-fluorophenyl) cyclopropanesulfonamide]
[1]; [34]
  inhibition at 10 µM: 0%
[1]; read-out: inhibition (10 μM)
  inhibition at 10 µM: 26.3%
[2]; [34]
  inhibition at 10 µM: 75 to 90%
[2]; read-out: inhibition (10 μM)
  inhibition at 10 µM: 84.7%
[3]; [34]
  inhibition at 10 µM: 0%
[3]; read-out: inhibition (10 μM)
  inhibition at 10 µM: 8.8%
[4]; [34]
  inhibition at 10 µM: 0%
[4]; read-out: inhibition (10 μM)
  inhibition at 10 µM: -20.6%
[5]; [34]
  inhibition at 10 µM: 0%
[5]; read-out: inhibition (10 μM)
  inhibition at 10 µM: -34.7%
[6]; [34]
  inhibition at 10 µM: 0%
[6]; read-out: inhibition (10 μM)
  inhibition at 10 µM: -11.8%
[7]; [34]
  inhibition at 10 µM: 0%
[7]; read-out: inhibition (10 μM)
  inhibition at 10 µM: 2.3%
[8]; 10 μM, range class
  % inhibition: 0.0%
[8]
  inhibition (10 μM): −20.2%
[9]; [34]
  inhibition at 10 µM: 0%
[9]; read-out: inhibition (10 μM)
  inhibition at 10 µM: 13.4%
[10]; [34]
  inhibition at 10 µM: 0%
[10]; read-out: inhibition (10 μM)
  inhibition at 10 µM: 24.2%
[11]; [34]
  inhibition at 10 µM: 50 to 75%
[11]; read-out:
  inhibition at 10 µM: 65.3%
[12]; [34]
  inhibition at 10 µM: 35 to 40%
[12]; read-out: inhibition (10 μM)
  inhibition at 10 µM: 44.2%
[13]; [34]
  inhibition at 10 µM: 35 to 40%
[13]; read-out: inhibition (10 μM)
  inhibition at 10 µM: 35.8%
[14]; [34]
  inhibition at 10 µM: 0%
[14]; read-out: inhibition (10 μM)
  inhibition at 10 µM: -3.5%
[15]; [34]
  inhibition at 10 µM: 50 to 75%
[15]; read-out: inhibition (10 μM)
  inhibition at 10 µM: 53.3%
[16]; [34]
  inhibition at 10 µM: 0%
[16]; read-out: inhibition (10 μM)
  inhibition at 10 µM: 25.1%
[17]; [34]
  inhibition at 10 µM: 0%
[17]; read-out: inhibition (10 μM)
  inhibition at 10 µM: 18.5%
[18]; [34]
  inhibition at 10 µM: 0%
[18]; read-out: inhibition (10 μM)
  inhibition at 10 µM: -11.5%
[19]; 10 μM, range class
  % inhibition: 0.0%
[19]
  inhibition (10 μM): 29.3%
[20]; [34]
  inhibition at 10 µM: 0%
[20]; read-out: inhibition (10 μM)
  inhibition at 10 µM: -31.3%
[21]; 10 μM, range class
  % inhibition: 0.0%
[21]
  inhibition (10 μM): 2.3%
[22]; [34]
  inhibition at 10 µM: 0%
[22]; read-out: inhibition (10 μM)
  inhibition at 10 µM: 7.7%
[23]; 10 μM, range class
  % inhibition: 0.0%
[23]
  inhibition (10 μM): 33.9%
[24]; [34]
  inhibition at 10 µM: > 90%
[24]; read-out: inhibition (10 μM)
  inhibition at 10 µM: 93.9%
[25]; [34]
  inhibition at 10 µM: 0%
[25]; read-out: inhibition (10 μM)
  inhibition at 10 µM: 14.6%
[26]; [34]
  inhibition at 10 µM: 0%
[26]; read-out: inhibition (10 μM)
  inhibition at 10 µM: -22.1%
[27]; [34]
  inhibition at 10 µM: 0%
[27]; read-out: inhibition (10 μM)
  inhibition at 10 µM: 2.7%
[28]; [34]
  inhibition at 10 µM: 0%
[28]; read-out: inhibition (10 μM)
  inhibition at 10 µM: 8.8%
[29]; [34]
  inhibition at 10 µM: 0%
[29]; read-out: inhibition (10 μM)
  inhibition at 10 µM: 13%
[30]; 10 μM, range class
  % inhibition: 0.0%
[30]
  inhibition (10 μM): 14.9%
[31]
  inhibition (10 μM): 43.2%
[31]; [34]
  inhibition at 10 µM: 35 to 40%
[31]; read-out: inhibition (10 μM)
  inhibition at 10 µM: 46.7%
[32]; [34]
  inhibition at 10 µM: 0%
[32]; read-out: inhibition (10 μM)
  inhibition at 10 µM: -23.9%
[33]; [34]
  inhibition at 10 µM: 0%
[33]; read-out: inhibition (10 μM)
  inhibition at 10 µM: 31.8%

## CN(C1CC1)S(=O)(=O)c1ccc(-c2cnc(N)c(-c3ccc4c(c3)CCNC4=O)c2)c(F)c1 [Compound I-28, 4-(6-amino-5-(1-oxo-1,2,3,4-tetrahydroisoquinolin-6-yl)pyridin-3-yl)-N-cyclopropyl-3-fluoro-N-methylbenzenesulfonamide]
[1]; read-out: % inhibition (range)
  inhibition at 10 µM: 0%
[1]; read-out: inhibition (10 μM)
  inhibition at 10 µM: 9.9%
[2]; read-out: % inhibition (range)
  inhibition at 10 µM: 75 to 90%
[2]; read-out: inhibition (10 μM)
  inhibition at 10 µM: 83.4%
[3]; read-out: % inhibition (range)
  inhibition at 10 µM: 0%
[3]; read-out: inhibition (10 μM)
  inhibition at 10 µM: 22.8%
[4]; read-out: % inhibition (range)
  inhibition at 10 µM: 0%
[4]; read-out: inhibition (10 μM)
  inhibition at 10 µM: 15.2%
[5]; read-out: % inhibition (range)
  inhibition at 10 µM: 35 to 50%
[5]; read-out: inhibition (10 μM)
  inhibition at 10 µM: 37.8%
[6]; read-out: % inhibition (range)
  inhibition at 10 µM: 0%
[6]; read-out: inhibition (10 μM)
  inhibition at 10 µM: 1.8%
[7]; read-out: % inhibition (range)
  inhibition at 10 µM: 0%
[7]; read-out: inhibition (10 μM)
  inhibition at 10 µM: -31%
[8]; 10 μM
  % inhibition (range): 0.0%
[8]
  inhibition (10 μM): −6.3%
[9]; read-out: % inhibition (range)
  inhibition at 10 µM: 0%
[9]; read-out: inhibition (10 μM)
  inhibition at 10 µM: -3.9%
[10]; read-out: % inhibition (range)
  inhibition at 10 µM: 0%
[10]; read-out: inhibition (10 μM)
  inhibition at 10 µM: -8.8%
[11]; read-out: % inhibition (range)
  inhibition at 10 µM: 35 to 50%
[11]; read-out:
  inhibition at 10 µM: 42.7%
[12]; read-out: % inhibition (range)
  inhibition at 10 µM: 0%
[12]; read-out: inhibition (10 μM)
  inhibition at 10 µM: 32.5%
[13]; read-out: % inhibition (range)
  inhibition at 10 µM: 0%
[13]; read-out: inhibition (10 μM)
  inhibition at 10 µM: 3.4%
[14]; read-out: % inhibition (range)
  inhibition at 10 µM: 0%
[14]; read-out: inhibition (10 μM)
  inhibition at 10 µM: 27.6%
[15]; read-out: % inhibition (range)
  inhibition at 10 µM: 50 to 75%
[15]; read-out: inhibition (10 μM)
  inhibition at 10 µM: 72.3%
[16]; read-out: % inhibition (range)
  inhibition at 10 µM: 35 to 50%
[16]; read-out: inhibition (10 μM)
  inhibition at 10 µM: 35.3%
[17]; read-out: % inhibition (range)
  inhibition at 10 µM: 0%
[17]; read-out: inhibition (10 μM)
  inhibition at 10 µM: -26.5%
[18]; read-out: % inhibition (range)
  inhibition at 10 µM: 0%
[18]; read-out: inhibition (10 μM)
  inhibition at 10 µM: 19.5%
[19]; 10 μM
  % inhibition (range): 0.0%
[19]
  inhibition (10 μM): −12.9%
[20]; read-out: % inhibition (range)
  inhibition at 10 µM: 0%
[20]; read-out: inhibition (10 μM)
  inhibition at 10 µM: -5.8%
[21]; 10 μM
  % inhibition (range): 0.0%
[21]
  inhibition (10 μM): 7.7%
[22]; read-out: % inhibition (range)
  inhibition at 10 µM: 0%
[22]; read-out: inhibition (10 μM)
  inhibition at 10 µM: -15.1%
[23]; 10 μM
  % inhibition (range): 50-75%
[23]
  inhibition (10 μM): 63.9%
[24]; read-out: % inhibition (range)
  inhibition at 10 µM: 75 to 90%
[24]; read-out: inhibition (10 μM)
  inhibition at 10 µM: 84.7%
[25]; read-out: % inhibition (range)
  inhibition at 10 µM: 0%
[25]; read-out: inhibition (10 μM)
  inhibition at 10 µM: 10.2%
[26]; read-out: % inhibition (range)
  inhibition at 10 µM: 0%
[26]; read-out: inhibition (10 μM)
  inhibition at 10 µM: -26.1%
[27]; read-out: % inhibition (range)
  inhibition at 10 µM: 0%
[27]; read-out: inhibition (10 μM)
  inhibition at 10 µM: 10.9%
[28]; read-out: % inhibition (range)
  inhibition at 10 µM: 0%
[28]; read-out: inhibition (10 μM)
  inhibition at 10 µM: 22.2%
[29]; read-out: % inhibition (range)
  inhibition at 10 µM: 0%
[29]; read-out: inhibition (10 μM)
  inhibition at 10 µM: 16.7%
[30]; 10 μM
  % inhibition (range): 0.0%
[30]
  inhibition (10 μM): −7.8%
[31]
  inhibition (10 μM): 33.1%
[31]; read-out: % inhibition (range)
  inhibition at 10 µM: 0%
[31]; read-out: inhibition (10 μM)
  inhibition at 10 µM: 27.5%
[32]; read-out: % inhibition (range)
  inhibition at 10 µM: 0%
[32]; read-out: inhibition (10 μM)
  inhibition at 10 µM: 3.8%
[33]; read-out: % inhibition (range)
  inhibition at 10 µM: 0%
[33]; read-out: inhibition (10 μM)
  inhibition at 10 µM: 13.9%
